Results: US10172789B2, “Compositions for transdermal delivery of mTOR inhibitors” (PALVELLA THERAPEUTICS LLC, priority 2013, dated 2019)
Entries after “also recorded” stand apart in the source; their conditions may differ.

Experiments:
mouse skin = test: Gross examination of topically-treated mouse ears, flanks and footpads; type: in vivo; details: flanks and footpads vs untreated or placebo-treated skin, data not shown
[1] = tested on: ribosomal protein S6 phosphorylation; test: S6 phosphorylation in mouse skin after topical formulation (western blot, IHC); type: in vivo; details: mouse skin including ears, topical formulation with rapamycin dissolved in benzyl alcohol; western blot and IHC
Description: (§1) FIGS. 1C-F show immunochemistry […] images of frozen skin sections taken from mice treated with the same creams as FIG. 1B.
(§2) To evaluate whether benzyl alcohol has deleterious effects on rapamycin activity, rapamycin was dissolved in benzyl alcohol (and compared with other solvents as indicated) and evaluated for its ability to block phosphorylation of ribosomal protein S6, a commonly used method to assess mTOR pathway inhibition by rapamycin, in human HaCaT and patient-derived keratinocytes. […] In the assays described below, a P-S6-specific antibody recognizes only the phosphorylated form of S6 whereas the other antibody recognizes total S6 protein (i.e., both P-S6 and unphosphorylated S6). […] The inhibition of phospho-S6 was observed by both western blot analysis of protein extracts from treated mouse skin (FIG. 1B) and by immunohistochemistry (IHC) of frozen sections prepared from treated mouse skin (FIG. 1C-F).

[2] = Rapamycin distribution in human explant skin after topical application (reverse-phase HPLC); type: in vitro ADME
Description: Rapamycin extracted from the indicated tissue slices was assayed by reverse-phase HPLC. The tissue surface was cleaned with isopropyl alcohol prior to sectioning to remove any residual surface material.
To test delivery of rapamycin from a formulation similar to that disclosed in Example 2, the formulation was applied to explant human skin.

[3] = tested on: ribosomal protein S6 phosphorylation; test: S6 phosphorylation (P-S6) western blot in human HaCaT keratinocytes; type: cell-based
Description: as §1, §2
Next-generation mTOR inhibitors have similar effects on ribosomal protein S6-phosphoylation (p-S6) when compared to rapamycin. […] The p-S6 levels were quantified and the ratio of p-S6 to total S6 (total S6 data not shown) was graphed in FIG. 2B in similar fashion to FIG. 1.

Structure (SMILES): CO[C@H]1C[C@@H]2CC[C@@H](C)[C@@](O)(O2)C(=O)C(=O)N2CCCC[C@H]2C(=O)O[C@H]([C@H](C)C[C@@H]2CC[C@@H](O)[C@H](OC)C2)CC(=O)[C@H](C)/C=C(\C)[C@@H](O)[C@@H](OC)C(=O)[C@H](C)C[C@H](C)/C=C/C=C/C=C/1C [rapamycin]
- skin irritation on gross examination (mouse skin): little or no irritation
- S6 phosphorylation relative to total S6 protein [1]: inhibited
- net deposition of rapamycin within the skin ([2]; 16 hours after application of rapamycin formulation): > 4 % of the applied dose
- rapamycin concentrations within the epidermis (and dermis) ([2]; 16 hours after topical application, formulation similar to Example 2, compared with level needed to inhibit S6 phosphorylation in cell culture): many fold higher than required for in vitro activity; also recorded: well above the IC50 value
- effect on total S6 protein levels ([3]; rapamycin dissolved in benzyl alcohol or other solvents): little or no effect
- inhibition of ribosomal protein S6 phosphorylation (P-S6) ([3]; rapamycin dissolved in benzyl alcohol, DMSO, ethanol or diglycol, FIG. 1A): efficiently inhibits
